MIC data for 20 molecules are collected here from US9624206B2, “Antibacterial 1H-indazole and 1H-indole derivatives” (priority 2013, dated 2017).

Converted amounts (≈) assume the structure as drawn.

Test in all cases: Bacterial growth minimal inhibitory concentration (microdilution, CLSI M7-A7)
What all share (assay type): cell-based
A general note: In broth dilution the organism is exposed to a series of concentrations in liquid medium.

For one experiment, the system named is K. pneumoniae A-651. Particulars: Klebsiella pneumoniae, A651; multiply-resistant strain (in particular quinolone-resistant); cation-adjusted Mueller-Hinton Broth. How it is done: (§1) Minimal Inhibitory Concentrations (MICs; mg/L) were determined in cation-adjusted Mueller-Hinton Broth by a microdilution method following the description given in “Methods for Dilution Antimicrobial Susceptibility Tests for Bacteria that Grow Aerobically”, Approved standard, 7th ed., Clinical and Laboratory Standards Institute (CLSI) Document M7-A7, Wayne, Pa., USA (2006).
(§2) All Example compounds were tested against several Gram-positive and Gram-negative bacteria. […] K. pneumoniae A-651 and Acinetobacter baumannii T6474 are multiply-resistant strains (in particular quinolone-resistant), while E. coli ATCC25922 and P. aeruginosa ATCC27853 are quinolone-sensitive strains.

A further experiment concerns E. coli ATCC25922. Particulars: Escherichia coli, ATCC25922; quinolone-sensitive strain; cation-adjusted Mueller-Hinton Broth. How it is done: as §1, §2
Experiment [1] concerns Acinetobacter baumannii T6474. The settings on record: Acinetobacter baumannii, T6474; multiply-resistant strain (in particular quinolone-resistant); cation-adjusted Mueller-Hinton Broth. The method, then:
as §1, §2

Another experiment deals with P. aeruginosa ATCC27853. Particulars: Pseudomonas aeruginosa, ATCC27853; quinolone-sensitive strain; cation-adjusted Mueller-Hinton Broth. The method, then:
as §1, §2

As to `C[C@@](CCn1ccc2cc(C#CC#C[C@@H]3C[C@H]3CO)ccc21)(C(=O)NO)S(C)(=O)=O` [Example 18, (R)—N-hydroxy-4-(5-(((1R,2R)-2-(hydroxymethyl)cyclopropyl)buta-1,3-diyn-1-yl)-1H-indol-1-yl)-2-methyl-2-(methylsulfonyl)butanamide], the MIC (commonly the smallest concentration in the dilution series that meets the test's criterion for growth inhibition) with K. pneumoniae A-651 was at most 0.063 µg/mL; against E. coli ATCC25922, at most 0.063 µg/mL; in experiment [1], 16 µg/mL (≈ 37.3 µM); with P. aeruginosa ATCC27853, 0.5 µg/mL (≈ 1.17 µM).

In the case of `C[C@@](CCn1ncc2cc(C#Cc3ccc([C@H]4C[C@@H]4CO)cc3)ccc21)(C(=O)NO)S(C)(=O)=O` [Example 19, (R)—N-hydroxy-4-(5-((4-((1S,2S)-2-(hydroxymethyl)cyclopropyl)phenyl)ethynyl)-1H-indazol-1-yl)-2-methyl-2-(methylsulfonyl)butanamide], the MIC is 0.25 µg/mL (≈ 0.519 µM) against K. pneumoniae A-651, 0.125 µg/mL (≈ 0.26 µM) in the experiment with E. coli ATCC25922, at most 0.063 µg/mL in experiment [1] and 1 µg/mL (≈ 2.08 µM) against P. aeruginosa ATCC27853.

As for `C[C@@](CCn1ncc2cc(C#Cc3ccc([C@@H]4C[C@H]4CO)cc3)ccc21)(C(=O)NO)S(C)(=O)=O` [Example 20, (R)—N-hydroxy-4-(5-((4-((1R,2R)-2-(hydroxymethyl)cyclopropyl)phenyl)ethynyl)-1H-indazol-1-yl)-2-methyl-2-(methylsulfonyl)butanamide], the minimal inhibitory concentration (MIC) was 0.25 µg/mL (≈ 0.519 µM) with K. pneumoniae A-651, at most 0.063 µg/mL against E. coli ATCC25922, at most 0.063 µg/mL in experiment [1] and 1 µg/mL (≈ 2.08 µM) against P. aeruginosa ATCC27853.

Take `C[C@@](CCn1ncc2cc(C#Cc3ccc([C@@H](O)CO)cc3)ccc21)(C(=O)NO)S(C)(=O)=O` [Example 21, (R)-4-(5-((4-((R)-1,2-dihydroxyethyl)phenyl)ethynyl)-1H-indazol-1-yl)-N-hydroxy-2-methyl-2-(methylsulfonyl)butanamide]: the minimum inhibitory concentration (MIC) against K. pneumoniae A-651 was 1 µg/mL (≈ 2.12 µM); in the experiment with E. coli ATCC25922 it was 1 µg/mL (≈ 2.12 µM); in experiment [1], 0.5 µg/mL (≈ 1.06 µM); against P. aeruginosa ATCC27853 it was 1 µg/mL (≈ 2.12 µM).

For `C[C@@](CCn1ncc2cc(C#Cc3ccc([C@H](O)CO)cc3)ccc21)(C(=O)NO)S(C)(=O)=O` [Example 22, (R)-4-(5-((4-((S)-1,2-dihydroxyethyl)phenyl)ethynyl)-1H-indazol-1-yl)-N-hydroxy-2-methyl-2-(methylsulfonyl)butanamide], the minimal inhibitory concentration (MIC) in the experiment on K. pneumoniae A-651 was 1 µg/mL (≈ 2.12 µM); in the experiment on E. coli ATCC25922, 0.5 µg/mL (≈ 1.06 µM); in experiment [1], 0.5 µg/mL (≈ 1.06 µM); in the experiment with P. aeruginosa ATCC27853 it was 1 µg/mL (≈ 2.12 µM).

Regarding `C[C@H](O)c1ccc(C#Cc2ccc3c(cnn3CC[C@](C)(C(=O)NO)S(C)(=O)=O)c2)cc1` [Example 23, (R)—N-hydroxy-4-(5-((4-((S)-1-hydroxyethyl)phenyl)ethynyl)-1H-indazol-1-yl)-2-methyl-2-(methylsulfonyl)butanamide], the MIC is 0.5 µg/mL (≈ 1.1 µM) in the experiment with K. pneumoniae A-651, 0.125 µg/mL (≈ 0.274 µM) against E. coli ATCC25922, 0.125 µg/mL (≈ 0.274 µM) in experiment [1] and 1 µg/mL (≈ 2.2 µM) against P. aeruginosa ATCC27853.

With `CC(C)(N)C#CC#Cc1ccc2c(cnn2CC[C@](C)(C(=O)NO)S(C)(=O)=O)c1` [Example 24, (R)-4-(5-(5-amino-5-methylhexa-1,3-diyn-1-yl)-1H-indazol-1-yl)-N-hydroxy-2-methyl-2-(methylsulfonyl)butanamide], the minimum inhibitory concentration (MIC) is 4 µg/mL (≈ 9.6 µM) with K. pneumoniae A-651, 1 µg/mL (≈ 2.4 µM) in the experiment on E. coli ATCC25922, over 32 µg/mL in experiment [1] and 1 µg/mL (≈ 2.4 µM) with P. aeruginosa ATCC27853.

Turning to `C[C@@](CCn1ccc2cc(C#Cc3ccc(C4(CO)CC4)cc3)ccc21)(C(=O)NO)S(C)(=O)=O` [Example 25, (R)—N-hydroxy-4-(5-((4-(1-(hydroxymethyl)cyclopropyl)phenyl)ethynyl)-1H-indol-1-yl)-2-methyl-2-(methylsulfonyl)butanamide], the minimal inhibitory concentration (MIC) with K. pneumoniae A-651 came to 0.5 µg/mL (≈ 1.04 µM); with E. coli ATCC25922, 0.25 µg/mL (≈ 0.52 µM); in experiment [1], 0.5 µg/mL (≈ 1.04 µM); with P. aeruginosa ATCC27853, 2 µg/mL (≈ 4.16 µM).

On to `C[C@@](CCn1ncc2cc(C#CC#C[C@H]3C[C@@H]3CO)ccc21)(C(=O)NO)S(C)(=O)=O` [Example 26, (R)—N-hydroxy-4-(5-(((1S,2S)-2-(hydroxymethyl)cyclopropyl)buta-1,3-diyn-1-yl)-1H-indazol-1-yl)-2-methyl-2-(methylsulfonyl)butanamide], for which the minimum inhibitory concentration (MIC) against K. pneumoniae A-651 was 0.125 µg/mL (≈ 0.291 µM); in the experiment with E. coli ATCC25922, at most 0.063 µg/mL; in experiment [1] it was 2 µg/mL (≈ 4.66 µM); in the experiment on P. aeruginosa ATCC27853, 0.5 µg/mL (≈ 1.16 µM).

In the case of `C[C@@](CCn1ncc2cc(C#Cc3ccc(OCCO)cc3)ccc21)(C(=O)NO)S(C)(=O)=O` [Example 27, (R)—N-hydroxy-4-(5-((4-(2-hydroxyethoxy)phenyl)ethynyl)-1H-indazol-1-yl)-2-methyl-2-(methylsulfonyl)butanamide], the MIC was 0.5 µg/mL (≈ 1.06 µM) in the experiment on K. pneumoniae A-651, 0.25 µg/mL (≈ 0.53 µM) in the experiment on E. coli ATCC25922, 0.125 µg/mL (≈ 0.265 µM) in experiment [1] and 2 µg/mL (≈ 4.24 µM) in the experiment with P. aeruginosa ATCC27853.

As to `C[C@@](CCn1ncc2cc(C#Cc3ccc(NC(=O)CO)cc3)ccc21)(C(=O)NO)S(C)(=O)=O` [Example 28, (R)—N-hydroxy-4-(5-((4-(2-hydroxyacetamido)phenyl)ethynyl)-1H-indazol-1-yl)-2-methyl-2-(methylsulfonyl)butanamide], the minimal inhibitory concentration (MIC) against K. pneumoniae A-651 was determined as 2 µg/mL (≈ 4.13 µM); against E. coli ATCC25922, 1 µg/mL (≈ 2.06 µM); in experiment [1], 0.5 µg/mL (≈ 1.03 µM); in the experiment with P. aeruginosa ATCC27853, 4 µg/mL (≈ 8.26 µM).

For `CC(C)(O)c1ccc(C#Cc2ccc3c(ccn3CC[C@](C)(C(=O)NO)S(C)(=O)=O)c2)cc1` [Example 29, (R)—N-hydroxy-4-(5-((4-(2-hydroxypropan-2-yl)phenyl)ethynyl)-1H-indol-1-yl)-2-methyl-2-(methylsulfonyl)butanamide], the MIC stood at 0.5 µg/mL (≈ 1.07 µM) against K. pneumoniae A-651, 0.25 µg/mL (≈ 0.534 µM) against E. coli ATCC25922, 0.5 µg/mL (≈ 1.07 µM) in experiment [1] and 2 µg/mL (≈ 4.27 µM) in the experiment with P. aeruginosa ATCC27853.

Take `C[C@@](CCn1ncc2c(F)c(C#Cc3ccc(C4(O)COC4)cc3)ccc21)(C(=O)NO)S(C)(=O)=O` [Example 30, (R)-4-(4-fluoro-5-((4-(3-hydroxyoxetan-3-yl)phenyl)ethynyl)-1H-indazol-1-yl)-N-hydroxy-2-methyl-2-(methylsulfonyl)butanamide]: the MIC with K. pneumoniae A-651 worked out at 0.5 µg/mL (≈ 0.997 µM); against E. coli ATCC25922, 0.25 µg/mL (≈ 0.498 µM); in experiment [1], 0.125 µg/mL (≈ 0.249 µM); with P. aeruginosa ATCC27853 it was 1 µg/mL (≈ 1.99 µM).

`C[C@@](CCn1ncc2c(F)c(C#CC#C[C@H]3C[C@@H]3CO)ccc21)(C(=O)NO)S(C)(=O)=O` [Example 31, (R)-4-(4-fluoro-5-(((1S,2S)-2-(hydroxymethyl)cyclopropyl)buta-1,3-diyn-1-yl)-1H-indazol-1-yl)-N-hydroxy-2-methyl-2-(methylsulfonyl)butanamide]: the MIC in the experiment on K. pneumoniae A-651 is at most 0.063 µg/mL; in the experiment with E. coli ATCC25922, at most 0.063 µg/mL; in experiment [1], 1 µg/mL (≈ 2.23 µM); in the experiment with P. aeruginosa ATCC27853, 0.5 µg/mL (≈ 1.12 µM).

In the case of `C[C@@](CCn1ccc2cc(C#Cc3ccc([C@H]4C[C@@H]4CO)cc3)ccc21)(C(=O)NO)S(C)(=O)=O` [Example 33, (R)—N-hydroxy-4-(5-((4-((1S,2S)-2-(hydroxymethyl)cyclopropyl)phenyl)ethynyl)-1H-indol-1-yl)-2-methyl-2-(methylsulfonyl)butanamide], the minimum inhibitory concentration (MIC) against K. pneumoniae A-651 turned out to be 0.25 µg/mL (≈ 0.52 µM); against E. coli ATCC25922, 0.125 µg/mL (≈ 0.26 µM); in experiment [1] it was 0.125 µg/mL (≈ 0.26 µM); against P. aeruginosa ATCC27853, 2 µg/mL (≈ 4.16 µM).

Consider `C[C@@](CCn1ncc2cc(C#CC#CC3(CO)CC3)ccc21)(C(=O)NO)S(C)(=O)=O` [Example 34, (R)—N-hydroxy-4-(5-((1-(hydroxymethyl)cyclopropyl)buta-1,3-diyn-1-yl)-1H-indazol-1-yl)-2-methyl-2-(methylsulfonyl)butanamide], for which the MIC against K. pneumoniae A-651 came to 0.5 µg/mL (≈ 1.16 µM); against E. coli ATCC25922, 0.25 µg/mL (≈ 0.582 µM); in experiment [1], 16 µg/mL (≈ 37.3 µM); in the experiment on P. aeruginosa ATCC27853 it was 1 µg/mL (≈ 2.33 µM).

On to `C[C@H](O)c1ccc(C#Cc2ccc3c(ccn3CC[C@](C)(C(=O)NO)S(C)(=O)=O)c2)cc1` [Example 35, (R)—N-hydroxy-4-(5-((4-((S)-1-hydroxyethyl)phenyl)ethynyl)-1H-indol-1-yl)-2-methyl-2-(methylsulfonyl)butanamide], for which the MIC is 0.25 µg/mL (≈ 0.55 µM) against K. pneumoniae A-651, at most 0.063 µg/mL against E. coli ATCC25922, 0.25 µg/mL (≈ 0.55 µM) in experiment [1] and 2 µg/mL (≈ 4.4 µM) against P. aeruginosa ATCC27853.

Turning to `C[C@@](CCn1ncc2c(F)c(C#Cc3ccc(CCO)cc3)ccc21)(C(=O)NO)S(C)(=O)=O` [Example 36, (R)-4-(4-fluoro-5-((4-(2-hydroxyethyl)phenyl)ethynyl)-1H-indazol-1-yl)-N-hydroxy-2-methyl-2-(methylsulfonyl)butanamide], the minimal inhibitory concentration (MIC) in the experiment on K. pneumoniae A-651 is 0.125 µg/mL (≈ 0.264 µM); against E. coli ATCC25922 it was at most 0.063 µg/mL; in experiment [1] it was at most 0.063 µg/mL; against P. aeruginosa ATCC27853, 1 µg/mL (≈ 2.11 µM).

`C[C@@H](O)c1ccc(C#Cc2ccc3c(cnn3CC[C@](C)(C(=O)NO)S(C)(=O)=O)c2F)cc1` [Example 37, (R)-4-(4-fluoro-5-((4-((R)-1-hydroxyethyl)phenyl)ethynyl)-1H-indazol-1-yl)-N-hydroxy-2-methyl-2-(methylsulfonyl)butanamide]: the minimal inhibitory concentration (MIC) in the experiment with K. pneumoniae A-651 is 0.125 µg/mL (≈ 0.264 µM); with E. coli ATCC25922 it was at most 0.063 µg/mL; in experiment [1], at most 0.063 µg/mL; with P. aeruginosa ATCC27853 it was 1 µg/mL (≈ 2.11 µM).

`C[C@@](CCn1ncc2c(F)c(C#CC#CC3(O)COC3)ccc21)(C(=O)NO)S(C)(=O)=O` [Example 38, (R)-4-(4-fluoro-5-((3-hydroxyoxetan-3-yl)buta-1,3-diyn-1-yl)-1H-indazol-1-yl)-N-hydroxy-2-methyl-2-(methylsulfonyl)butanamide]: the minimum inhibitory concentration (MIC) worked out at 1 µg/mL (≈ 2.22 µM) in the experiment with K. pneumoniae A-651, 0.5 µg/mL (≈ 1.11 µM) in the experiment with E. coli ATCC25922, 32 µg/mL (≈ 71.2 µM) in experiment [1] and 1 µg/mL (≈ 2.22 µM) with P. aeruginosa ATCC27853.
